Test results reported in US5658913A, “Chemopreventive compounds and a preparation method and use thereof” (Kim; Nak Doo, priority 1993, dated 1997).

Tests used:
[1] = tested on: enzymes involved in phase II reactions; details: literature; cited from earlier work
cancers = details: literature; cited from earlier work
cytochrome P-450 2E1 = details: cited from earlier work; for effect on cytochrome P-450 2E1 expression: literature / inventors' submitted paper
aniline hydroxylase = experiment: Aniline hydroxylase activity in combination with INAH (Experimental Example 2(2)); assay type: in vivo, Sprague-Dawley rat; details: for Aniline hydroxylase, Amount: INAH 200 mg/kg i.p., alone or plus compound 200 mg/kg; for Aniline hydroxylase, Activity: INAH alone = 100%; for Aniline hydroxylase, Activity / inhibition of expression of aniline hydroxylase induced by INAH: INAH plus compound, each 200 mg/kg i.p.; for inhibition of expression of aniline hydroxylase induced by INAH: in words
Procedure: Thus, 1 mg of microsomes and 5 mM aniline were added to 0.6 ml of 0.1M potassium phosphate buffer(pH 6.8) to make the total volume of 0.9 ml. 1 mM NADPH was added to make the total volume of 1.0 ml and the resulting mixture was reacted at 37° C. After 10 minutes, 20% trichloroacetic acid was added to stop the reaction and the reaction mixture was centrifuged. To 1 ml of supernatant were added 0.1 ml of 5% phenol and 0.1 ml of 2.5N sodium carbonate, dissolved in 0.1N NaOH. The mixture was allowed to stand for 30 minutes to develop a color and the absorbance at 630 nm was measured at once. The enzyme activity was expressed in terms of mole concentration of 4-aminophenol, the product of reaction for 1 minute.
(§1) In order to examine the effect of the compound of the present invention on the activity of the enzymes involved in phase I reaction when administered in combination with INAH, the experiments were carried out as follows:
(§2) Eight groups of Sprague-Dawley rat weighing 190±30 g were intraperitoneally administered with INAH(Group 1), or INAH plus the compounds of Examples 2 to 8(Groups 2 to 8), each in a dose of 200 mg/kg. The inventive compounds and INAH were diluted with corn oil and PBS respectively, and the test compounds were administered just after administering INAH.
(§3) The changes in the activity of p-nitrophenol hydroxylase and aniline hydroxylase were measured by following the same procedure as in Experimental Example 1(2-1) and (2-2). The activity of enzymes was determined by considering the activity of enzyme when INAH alone was administered as 100%.

[2] = tested on: p-nitrophenol hydroxylase; experiment: p-Nitrophenol hydroxylase activity in combination with INAH (Experimental Example 2(2)); assay type: in vivo, Sprague-Dawley rat; details: for p-Nitrophenol hydrolase, Amount: INAH 200 mg/kg i.p., alone or plus compound 200 mg/kg; for inhibition of expression of p-nitrophenol hydroxylase induced by INAH: INAH plus compound, each 200 mg/kg i.p., in words
[3] = tested on: p-nitrophenol hydroxylase; experiment: as above; assay type: in vivo, Sprague-Dawley rat; details: INAH alone = 100%; INAH plus compound, each 200 mg/kg i.p.
Procedure: Thus, 1 mg of microsomes and 1mM p-nitrophenol were added to 0.6 ml of 0.1M potassium phosphate buffer(pH 6.8) to make the total volume of 0.9 ml. The resulting mixture was preliminarily reacted in a 37° C. incubator for 2 minutes and started to react while adding 1 mM NADPH(0.1 ml). After 3 minutes, 0.5 ml of 0.6N perchloric acid was added to develop a color and the absorbance at 546 nm was measured at once. The enzyme activity was expressed in terms of mole concentration of 4-nitrocatechol, the product of reaction for 1 minute.
as §1, §2, §3

[4] = tested on: Glutathion S-transferase (GST); experiment: GST activity, administered alone or in combination with INAH (Experimental Example 4(2)); assay type: in vivo, Sprague-Dawley rat; details: for induction of expression of glutathione S-transferase when INAH is administered: in words; for increase of expression of glutathione S-transferase: Table 3
Procedure: Thus, to 25 μg(0.1 ml) of cytosol protein were added 0.1 mM […] and 1.0 mM glutathione as substrates, and 0.1M potassium phosphate were added to make the total volume of 1.0 ml(pH 6.4). The resulting mixture was allowed to stand at room temperature for 2 minutes and measured for its absorbance at 340 nm at intervals of 15 seconds during the period of 1 minute. As a reference, a cytosol protein denatured by heating was used. The activity of GST was calculated by measuring the change of absorbance for the period of 1 minute and employing the extinction coefficient of 9.6 mM^-1 cm^-1.
In order to examine the effect of the compound of the present invention on the activity of the enzymes involved in phase II reaction when administered alone or in combination with INAH, the experiments were carried out as follows:
Sixteen groups of Sprague-Dawley rat weighing 190±30 g were intraperitoneally administered with corn oil(Group 1), compounds of Examples 2 to 8(Groups 2 to 8), INAH(Group 9), or INAH plus the compounds of Examples 2 to 8(Groups 10 to 16), each in a dose of 200 mg/kg. The inventive compounds and INAH were diluted with corn oil, and the test compounds were administered just after administering INAH.
The change in the activity of GST was measured by following the same procedure as in Experimental Example 3(2). The activity of enzyme was determined by considering the activity of enzyme when corn oil or INAH alone was administered as 100%.

P450 2E1 = experiment: Immunoblot analysis of P-450 2E1 expression when administered together with INAH (Experimental Example 2(1)); assay type: in vivo, Sprague-Dawley rat; details: 200 mg/kg i.p. plus INAH 200 mg/kg; FIG. 5
Procedure: To the first group as a control group, corn oil was administered intraperitoneally in an amount of 0.1 ml/200 g body weight. The second group was administered intraperitoneally INAH diluted with PBS in a dose of 200 mg/kg body weight. […] The hepatic microsomes were separated and subjected to Western blot analysis on SDS-PAGE by following the same procedure as in the above Experimental Example 1 (1).

[5] = INAH alone or INAH plus compound, each 200 mg/kg i.p.
[6] = INAH plus compound, each 200 mg/kg i.p., INAH alone = 100%
[7] = compound alone, 200 mg/kg i.p., corn oil = 100%

Row | Compound | induction of enzymes involved in phase II reactions [1] | cancer suppression (cancers) | suppression of cytochrome P-450 2E1 induced by pyrazine (cytochrome P-450 2E1; inventors' submitted paper) | effect on cytochrome P-450 2E1 expression (cytochrome P-450 2E1) | Aniline hydroxylase, Amount (aniline hydroxylase) | Aniline hydroxylase, Activity (aniline hydroxylase) | p-Nitrophenol hydrolase, Amount [2] | p-Nitrophenol hydrolase, Activity [3] | Glutathion S-transferase, Amount [4, 5] | Glutathion S-transferase, Activity [4, 6] | Glutathion S-transferase, Amount ([4]; compound alone, 200 mg/kg i.p.) | Glutathion S-transferase, Activity [4, 7] | induction of expression of glutathione S-transferase when INAH is administered ([4]; INAH plus compound) | inhibition of expression of aniline hydroxylase induced by INAH (aniline hydroxylase) | inhibition of expression of p-nitrophenol hydroxylase induced by INAH [2] | increase of expression of glutathione S-transferase ([4]; compound alone, 200 mg/kg i.p.) | suppression of enzyme (P450 2E1) expression induced by INAH (P450 2E1)
1 | 2(3)-tert-butyl-4-hydroxyanisole [butylhydroxyanisole] | shows an anti-cancer activity by inducing enzymes involved in phase II reactions | – | – | – | – | – | – | – | – | – | – | – | – | – | – | – | –
2 | Cc1cc(C(C)(C)C)c(O)c(C(C)(C)C)c1 [butylhydroxytoluene, 3,5-ditert-butyl-4-hydroxytoluene] | shows a anti-cancer activity by inducing enzymes involved in phase II reactions | – | – | – | – | – | – | – | – | – | – | – | – | – | – | – | –
3 | C=CCSCC=C [allylsulfide, diallylsulfide] | – | strongly suppress liver and colon cancers | completely suppress cytochrome P-450 2E1 induced by the action of pyrazine | strongly inhibits the expression of cytochrome P-450 2E1 | – | – | – | – | – | – | – | – | – | – | – | – | –
4 | C=C(C)CCSc1cnccn1 [Example 6, 2-(3-methyl-3-butenylthio)pyrazine] | – | – | – | – | 0.879 nmol/min/mg protein | 60% | 3.25 nmol/min/mg protein | 56% | 2.375 nmol/min/mg protein | 118% | 2.558 nmol/min/mg protein | 148% | – | – | – | – | –
5 | CC(C)=CCSc1cnccn1 [Example 3, 2-(3-methyl-2-butenylthio)pyrazine] | – | – | – | – | 1.108 nmol/min/mg protein | 76% | 4.23 nmol/min/mg protein | 73% | 3.071 nmol/min/mg protein | 153% | 2.708 nmol/min/mg protein | 157% | strongly induce expression of enzyme | – | – | – | –
6 | NNC(=O)c1ccncc1 [INAH, isoniazid, reference compound] | – | – | – | – | 1.453 nmol/min/mg protein | 100% | 5.80 nmol/min/mg protein | 100% | 2.008 nmol/min/mg protein | 100% | – | – | – | – | – | – | –
7 | c1cnccn1 [pyrazine] | – | – | – | inducing cytochrome P-450 2E1 | – | – | – | – | – | – | – | – | – | – | – | – | –
8 | C=CC(C)Sc1cnccn1 (stereo not drawn) [Example 8] | – | – | – | – | 0.659 nmol/min/mg protein | 45% | 2.33 nmol/min/mg protein | 40% | 2.808 nmol/min/mg protein | 140% | 3.290 nmol/min/mg protein | 181% | strongly induce expression of enzyme | superior inhibitory action | superior inhibitory action | ≥ 70% | strongest suppression
9 | Cc1c(-c2cnccn2)ssc1=S [Oltipraz] | ability of inducing enzymes of phase II reactions | can suppress lung and stomach cancers | – | – | – | – | – | – | – | – | – | – | – | – | – | – | –
10 | c1coc(CSc2cnccn2)c1 [Example 5, 2-(furfurylthio)pyrazine] | – | – | – | – | 0.972 nmol/min/mg protein | 67% | 3.53 nmol/min/mg protein | 61% | 3.029 nmol/min/mg protein | 151% | 2.996 nmol/min/mg protein | 174% | strongly induce expression of enzyme | – | – | ≥ 70% | –
11 | C(=Cc1ccccc1)CSc1cnccn1 [Example 4, 2-(cinnamylthio)pyrazine] | – | – | – | – | 0.972 nmol/min/mg protein | 67% | 3.69 nmol/min/mg protein | 64% | 2.683 nmol/min/mg protein | 134% | 2.892 nmol/min/mg protein | 168% | – | – | – | – | –
12 | CC=CCSc1cnccn1 [Example 7, 2-(2-butenylthio)pyrazine] | – | – | – | – | 0.712 nmol/min/mg protein | 49% | 2.33 nmol/min/mg protein | 40% | 2.263 nmol/min/mg protein | 113% | 3.046 nmol/min/mg protein | 177% | – | superior inhibitory action | superior inhibitory action | ≥ 70% | –
13 | c1ccc(CSc2cnccn2)cc1 [Example 2, 2-(benzylthio)pyrazine] | – | – | – | – | 1.070 nmol/min/mg protein | 74% | 4.52 nmol/min/mg protein | 78% | 2.675 nmol/min/mg protein | 133% | 2.533 nmol/min/mg protein | 147% | – | – | – | – | –
